The text below walks through data of patent US10280174B2, “Salt of fused pyrimidine compound and crystal thereof” (TAIHO PHARMACEUTICAL CO., LTD., priority 2015, dated 2019).

This data set can be described thus: Research of base addition salts of Compound A (solubility observation). Type of data set: physicochemical. Particulars: water / organic solvent, in words. How it is done: A research was carried out on salt formation with sodium and magnesium, among inorganic bases. Specifically, Compound A was dissolved in an appropriate solvent, and each kind of the bases was added thereto (from 0.5 to 1.5 equivalent), and stirring was carried out for overnight, to thereby determine whether or not a salt formation occurred. As a result, in salt formation with sodium, decomposition remarkably proceeded, and therefore, the research was suspended. From the case of magnesium, hemi magnesium salt of Compound A was obtained (Reference Example 6).

For the compound `C=CC(=O)N1CCC[C@@H](n2nc(C(=O)Nc3nc4ccccc4o3)c3c(N)ncnc32)C1.C=CC(=O)N1CCC[C@@H](n2nc(C(=O)Nc3nc4ccccc4o3)c3c(N)ncnc32)C1.[Mg]` [hemi magnesium salt of Compound A, (R)-1-(1-acryloylpiperidin-3-yl)-4-amino-N-(benzo[d]oxazol-2-yl)-1H-pyrazolo[3,4-d]pyrimidine-3-carboxamide.hemi magnesium salt], the solubility entry is “low solubility to water and to an organic solvent”.
